Measured values reported in PMC12951568, “Identifying Structural Factors Governing the Photodynamic Activity of Phthalocyanines” (Journal of Medicinal Chemistry, 2026).
Where two headings read alike, the source gives them in different places.

Experiments:
[1] = test system: HeLa (human cervical carcinoma); assay: Photodynamic activity (phototoxicity, neutral red uptake) on HeLa; assay type: cell-based; conditions: 12 h incubation, Xe-lamp 15 min, λ > 570 nm, 11.2 J/cm^2, mean ± SD, t.w. = this work
Experimental: (§1) Detailed in vitro studies involving subcellular localization and determination of the EC50 in three different cell lines (human cervical carcinoma–HeLa, human breast adenocarcinoma–MCF-7, and human skin melanoma–SK-MEL-28) were performed. A broadband light source (ozone-free 450 W Xe-lamp, Newport) equipped with the long-pass filter Schott OG570 was used (12.4 mW/cm^2, 15 min, 11.2 J/cm^2).
(§2) For the cytotoxicity experiments (phototoxicity), cells were seeded at 100 μL per well into 96-well plates (TPP, Switzerland) at a density of 7.5 × 10^3 (HeLa) or 1.0 × 10^4 (MCF-7 and SK-MEL-28) cells per well. Cells were left to grow for 24 h (until they reached confluency) in a controlled environment of a CO2 incubator (37 °C, 5% CO2 atmosphere, constant high humidity). Subsequently, studied compounds were added in a wide concentration range and incubated with the cells for 12 h. Cells were washed; fresh cell culture medium was added, and the cells were irradiated using a 450 W Xe lamp (Newport, USA). The lamp was equipped with a long pass filter (Newport OG570) and an 8 cm water filter (λ > 570 nm, 12.4 mW/cm^2, 15 min, 11.2 J/cm^2). Cellular viability was assessed after an additional 24 h by the neutral red (NR; Sigma, Merck, USA) uptake assay. At least three independent experiments, each in triplicate, were performed. The soluble NR was measured at λ = 540 nm using a Tecan Infinite 200 M plate reader (Tecan, Austria). The viability of each experimental group was expressed as the percentage of the untreated cells (100% viability) after subtraction of the signal from cells treated with a lethal dose of hydrogen peroxide (0% viability). […] EC50 values were calculated, and graphs were created by using GraphPad Prism 10.3.1 (Graph Pad software, USA).

[2] = Absorption and fluorescence emission spectra in DMF; assay type: physicochemical; conditions: in DMF
Experimental: An absorption spectrum of 2.475 mL of solvent (water, DMF, or PBS) was taken (i.e., absorption spectrum of baseline); then, 25 μL of stock solution was added to reach the final concentration of 1 μM in the cuvette, and the absorption and emission spectra were taken. Baseline of the solvent was subtracted from the obtained absorption spectrum to get the final absorption spectrum of the sample.

[3] = test system: MCF-7 (human breast adenocarcinoma); assay: Photodynamic activity (phototoxicity, neutral red uptake) on MCF-7; assay type: cell-based; conditions: 12 h incubation, Xe-lamp 15 min, λ > 570 nm, 11.2 J/cm^2, mean ± SD, t.w. = this work
Experimental: as §1, §2

[4] = biological target: bovine serum albumin (BSA) (Bos taurus, UniProt P02769); assay: Interaction with bovine serum albumin (absorption and emission spectra in PBS); assay type: binding; conditions: 1 μM Pc in PBS, BSA 17.5, 35 and 100 μM
bovine serum albumin (BSA), sequence (P02769 25-607): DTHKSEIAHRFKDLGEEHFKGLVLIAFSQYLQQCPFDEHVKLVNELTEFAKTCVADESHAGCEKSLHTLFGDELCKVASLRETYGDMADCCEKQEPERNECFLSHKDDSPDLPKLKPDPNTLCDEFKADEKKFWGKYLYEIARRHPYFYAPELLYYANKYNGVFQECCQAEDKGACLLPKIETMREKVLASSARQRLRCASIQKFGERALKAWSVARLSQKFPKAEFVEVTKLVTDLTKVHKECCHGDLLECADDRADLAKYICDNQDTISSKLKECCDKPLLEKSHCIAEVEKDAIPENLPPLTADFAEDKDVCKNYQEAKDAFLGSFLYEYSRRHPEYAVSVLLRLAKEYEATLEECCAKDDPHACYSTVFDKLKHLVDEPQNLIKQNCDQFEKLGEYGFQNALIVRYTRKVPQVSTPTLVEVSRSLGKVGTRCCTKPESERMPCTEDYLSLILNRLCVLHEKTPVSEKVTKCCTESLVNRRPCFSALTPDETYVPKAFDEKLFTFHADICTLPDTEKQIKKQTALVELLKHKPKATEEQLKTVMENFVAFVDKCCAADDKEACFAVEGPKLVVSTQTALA

[5] = Fluorescence lifetime in DMF; assay type: physicochemical
Description: 1 Photophysical Data of Investigated Derivatives in DMF ^a | column: τF1/ns; τF2/ns

[6] = Log P, partition between n-octanol and PBS; assay type: physicochemical; conditions: partition coefficient between 1-octanol and PBS
Experimental: 400 μL portion of n-octanol and 400 μL of PBS buffer were mixed in a plastic Eppendorf vial. Then, 20 μL of the 100 μM stock solution of the sample (see above) was added to this mixture, vortexed for 5 min at rt, and then centrifuged for 10 min (10 000 rpm, rt). 50 μL of each of these layers was taken into 2.5 mL of DMF in a quartz cuvette, and their emission spectra (excitation wavelengths in Table ) were recorded. The log P value was then computed using the area under the curve of the emission spectra of n-octanol (F oct) and PBS buffer (F PBS) layers as follows: logP=log(Foct/FPBS) Triplicate measurements were performed, and the data reported are the mean of the obtained results.

[7] = test system: SK-MEL-28 (human skin melanoma); assay: Photodynamic activity (phototoxicity, neutral red uptake) on SK-MEL-28; assay type: cell-based; conditions: 12 h incubation, Xe-lamp 15 min, λ > 570 nm, 11.2 J/cm^2, mean ± SD, t.w. = this work
Experimental: as §1, §2

[8] = Quantum yield of singlet oxygen production, comparative method with DPBF scavenger; assay type: physicochemical; conditions: in DMF, ZnPc as reference
Experimental: Eight μL of the 100 μM stock solution of the dye in DMF (or DMF + water or water; see above) was added. A xenon lamp (100 W, ozone free XE DC short arc lamp, New port) was used to irradiate the sample while stirring. The incident light was filtered through a water filter (6 cm) and cut off filter OG530 eliminating heat and light under 523 nm, respectively. […] The decrease of DPBF in solution with irradiation time was monitored at 415 nm. The values of ΦΔ of the dyes were calculated by the following equation: φΔS=φΔ[…] is the slope of the plot of the dependence of ln([…] 0 and A t being the absorbances of the DPBF at 415 nm before irradiation and after irradiation time t, respectively. I aT is the total amount of light absorbed by the dye sample. Superscripts R and S indicate the reference and sample, respectively. I aT is calculated as a sum of intensities of the absorbed light I a at wavelengths from 523 to 850 nm (step 0.5 nm). Light under 523 nm is completely filtered by an OG530 filter, and light above 850 nm is not absorbed by the studied dye sample. I a at a given wavelength is calculated using Beer-Lambert'[…]) where I 0 is transmittance of the filter at the given wavelength and A is the absorbance of the dye at this wavelength. All experiments were performed three times, and the data presented is the mean value of the three obtained results with estimated error ± 10%.

[9] = Fluorescence quantum yield, comparative method; assay type: physicochemical; conditions: in DMF; ZnPc as reference
Experimental: The fluorescence quantum yields (ΦF) were determined by a comparative method with ZnPc as the reference (ΦF = 0.32 in THF). The ΦF values were calculated using the following formula: ϕFS=ϕFR(F^S/F^R)(1−10^−A^R/1−10^−A^S)(η^S/η^R)^2 where F is the integrated area under the emission spectrum and A is the absorbance at the excitation wavelength. Superscripts R and S indicate the reference and sample, respectively. η stands for the refractive index of the solvent. Absorption in the Q-band was kept below 0.05 to eliminate the inner filter effect. Excitation wavelengths were the same as those used for emission spectra (see above). The emission wavelengths were set to their emission maxima to avoid exceeding the detector limit with stimated error ± 15%.

[10] = test system: HeLa (human cervical carcinoma); conditions: 12 h incubation, Xe-lamp 15 min, λ > 570 nm, 11.2 J/cm^2; mean ± SD; determined previously under the same conditions at the same workplace and published; ref number not given; read-out: EC50 (nM) HeLa; cited from earlier work
[11] = test system: MCF-7 (human breast adenocarcinoma); set-up: method as in number not printed in Table 2; conditions: 12 h incubation, Xe-lamp 15 min, λ > 570 nm, 11.2 J/cm^2; mean ± SD; determined previously under the same conditions at the same workplace and published; ref number not given; cited from earlier work

| Compound | EC50 [1] [nM] | ε, extinction coefficient [2] | λA, absorption maximum in the Q-band [2] [nm] | λF, fluorescence emission maximum [2] [nm] | EC50 [3] [nM] | Interaction with BSA: disaggregation/monomerization and changes in absorption and fluorescence emission spectra [4] | τF1, fluorescence lifetime (relative amplitude in brackets) [5] | τF2, fluorescence lifetime (relative amplitude in brackets) [5] | Log P [6] | EC50 [7] [nM] | ΦΔ, quantum yield of singlet oxygen production [8] | ΦF, fluorescence quantum yield [9] | EC50 [10] [nM] | EC50 [11] [nM] | EC50 ([1]; Homo sapiens, HeLa, light or radiation study) [nM] | EC50 ([3]; Homo sapiens, MCF7, light or radiation study) [nM] | logP ([6]; n-octanol/PBS buffer) | EC50 ([7]; Homo sapiens, SK-MEL-28, light or radiation study) [nM] |
| --- | --- | --- | --- | --- | --- | --- | --- | --- | --- | --- | --- | --- | --- | --- | --- | --- | --- | --- |
| NCCc1ccc(Oc2cccc3c2C2=NC3=Nc3c4ccccc4c4[n]3[Zn][n]3c(c5ccccc5c3=N2)=NC2=NC(=N4)c3ccccc32)cc1 [C15Zn] | 74 ± 22 | 136 590 M^–1cm^–1 | 675 | 684 | 50 ± 8 | Partial monomerization | 1.23 (7%) ns | 2.96 (93%) ns | 3.32 | 25 ± 6 | 0.53 | 0.20 | – | – | – | – | – | – |
| CSc1cc2c(cc1SC)C1=Nc3c4cc(SC)c(SC)cc4c4[n]3[Zn][n]3c(c5cc(SC)c(SC)cc5c3=NC2=N1)=NC1=NC(=N4)c2cc(Oc3c(Cn4cc[n+](C)c4)cc(C)cc3Cn3cc[n+](C)c3)c(Oc3c(Cn4cc[n+](C)c4)cc(C)cc3Cn3cc[n+](C)c3)cc21.[I-].[I-].[I-].[I-] [C4Zn] | – | 106 360 M^–1cm^–1 | 697 | 709 | – | – | – | – | 0.62 | 108 ± 24 | 0.44 | 0.21 | 79 ± 20 | 61 ± 9 | – | – | – | – |
| Cc1cc(Cn2c[n+](C)cn2)c(Oc2cc3c(cc2Oc2c(Cn4c[n+](C)cn4)cc(C)cc2Cn2c[n+](C)cn2)C2=Nc4c5cc(Oc6c(Cn7c[n+](C)cn7)cc(C)cc6Cn6c[n+](C)cn6)c(Oc6c(Cn7c[n+](C)cn7)cc(C)cc6Cn6c[n+](C)cn6)cc5c5[n]4[Zn][n]4c(c6cc(Oc7c(Cn8c[n+](C)cn8)cc(C)cc7Cn7c[n+](C)cn7)c(Oc7c(Cn8c[n+](C)cn8)cc(C)cc7Cn7c[n+](C)cn7)cc6c4=NC4=NC(=N5)c5cc(Oc6c(Cn7c[n+](C)cn7)cc(C)cc6Cn6c[n+](C)cn6)c(Oc6c(Cn7c[n+](C)cn7)cc(C)cc6Cn6c[n+](C)cn6)cc54)=NC3=N2)c(Cn2c[n+](C)cn2)c1.[I-].[I-].[I-].[I-].[I-].[I-].[I-].[I-].[I-].[I-].[I-].[I-].[I-].[I-].[I-].[I-] [C13Zn] | – | 236 490 M^–1cm^–1 | 679 | 687 | – | – | 0.60 (4%) ns | 2.27 (96%) ns | –3.47 | 56 ± 6 | 0.37 | 0.20 | 12 ± 4 | 5.3 ± 0.8 | – | – | – | – |
| O=S(=O)([O-])c1ccc2c(c1)-c1nc-2nc2[nH]c(nc3nc(nc4[nH]c(n1)c1ccccc41)-c1ccc(S(=O)(=O)[O-])cc1-3)c1ccc(S(=O)(=O)[O-])cc21.[Na+].[Na+].[Na+] [A9H] | – | 104 650 M^–1cm^–1 | – | 703 | – | partial | 1.97 (18%) ns | 3.87 (82%) ns | – | – | 0.19 | 0.22 | – | – | 85 ± 7 | 347 ± 125 | -1.35 | 300 ± 77 |
| Cc1cc(Cn2cc[n+](C)c2)c(Oc2c3c(c(C)c(C)[n+]2C)C2=NC3=Nc3c4cc(SC(C)(C)C)c(SC(C)(C)C)cc4c4[n]3[Zn][n]3c(c5cc(SC(C)(C)C)c(SC(C)(C)C)cc5c3=N2)=NC2=NC(=N4)c3cc(SC(C)(C)C)c(SC(C)(C)C)cc32)c(Cn2cc[n+](C)c2)c1.[I-].[I-].[I-] [C2Zn] | – | 177 880 M^–1cm^–1 | 708 | 718 | – | – | 1.67 ns | – | 1.38 | 62 ± 11 | 0.70 | 0.30 | 105 ± 34 | 65 ± 8 | – | – | – | – |
